SMILES | melting point [°C]
CC(C)CCN1CC(=O)Nc2ccc(Cl)cc2C1C(F)(F)F (stereo not shown) [compound 151, 7-Chloro-4-(3-methylbutyl)-1,5-dihydro-5-(trifluoromethyl)-1,4-benzodiazepin-2-one] | 68 to 70
O=C1CN(c2ccccc2)C(C(F)(F)F)c2cc(Cl)ccc2N1 (stereo not shown) [compound 164, 7-Chloro-4-phenyl-1,5-dihydro-5-(trifluoromethyl)-1,4-benzodiazepin-2-one] | 187 to 188
CCCCCC1(C(F)(F)F)N=CC(=O)Nc2ccc(Cl)cc21 (stereo not shown) [compound 179, 7-Chloro-5-pentyl-1,5-dihydro-5-(trifluoromethyl)-1,4-benzodiazepin-2-one] | 142 to 143
O=C1CN(Cc2cc(F)ccc2F)C(C(F)(F)F)c2cc(Cl)ccc2N1 (stereo not shown) [compound 148, 7-Chloro-4-(2,5-difluorobenzyl)-1,5-dihydro-5-(trifluoromethyl)-1,4-benzodiazepin-2-one] | 134 to 135
O=C1CN(Cc2c(F)cccc2Cl)C(C(F)(F)F)c2cc(Cl)ccc2N1 (stereo not shown) [compound 115, 7-Chloro-4-(2-chloro-6-fluorobenzyl)-1,5-dihydro-5-(trifluoromethyl)-1,4-benzodiazepin-2-one] | 171 to 172
O=C1C=NC(C#CC2CC2)(C(F)(F)F)c2c(ccc(F)c2F)N1 (stereo not shown) [compound 195, 6,7-Difluoro-5-(2-cyclopropylethynyl)-1,5-dihydro-5-(trifluoromethyl)-1,4-benzodiazepin-2-one] | 185 to 187
O=C1C=NC(C#Cc2cccs2)(C(F)(F)F)c2cc(Cl)ccc2N1 (stereo not shown) [compound 135, 7-Chloro-5-(2-thienylethynyl)-1,5-dihydro-5-(trifluoromethyl)-1,4-benzodiazepin-2-one] | 196 to 198
CCC#CCN1CC(=O)Nc2ccc(Cl)cc2C1C(F)(F)F (stereo not shown) [compound 149, 7-Chloro-4-(2-pentynyl)-1,5-dihydro-5-(trifluoromethyl)-1,4-benzodiazepin-2-one] | 123 to 124
COc1cccc(F)c1CN1CC(=O)Nc2ccc(Cl)cc2C1C(F)(F)F (stereo not shown) [compound 146, 7-Chloro-4-(2-methoxy-6-fluorobenzyl)-1,5-dihydro-5-(trifluoromethyl)-1,4-benzodiazepin-2-one] | 107 to 108
CCCCCN1CC(=O)Nc2ccc(Cl)cc2C1C(F)(F)F (stereo not shown) [compound 108, 7-Chloro-4-pentyl-1,5-dihydro-5-(trifluoromethyl)-1,4-benzodiazepin-2-one] | 114 to 115
CC(C)CC1(C(F)(F)F)N=CC(=O)Nc2ccc(Cl)cc21 (stereo not shown) [compound 169, 7-Chloro-5-(2-methylpropyl)-1,5-dihydro-5-(trifluoromethyl)-1,4-benzodiazepin-2-one] | 118 to 119
CC(C)C#CC1(C(F)(F)F)c2c(ccc(F)c2F)NC(=O)CN1O (stereo not shown) [compound 133, 6,7-Difluoro-4-hydroxy-5-(3-methyl-1-butynyl)-1,5-dihydro-5-(trifluoromethyl)-1,4-benzodiazepin-2-one] | 174 to 176
O=C1CN(CCc2cccc(Cl)c2)C(C(F)(F)F)c2cc(Cl)ccc2N1 (stereo not shown) [compound 141, 7-Chloro-4-(2-(3-chlorophenyl)ethyl)-1,5-dihydro-5-(trifluoromethyl)-1,4-benzodiazepin-2-one] | 208 to 209
CCCCC1(C(F)(F)F)N=CC(=O)Nc2ccc(Cl)cc21 (stereo not shown) [compound 128, 7-Chloro-5-butyl-1,5-dihydro-5-(trifluoromethyl)-1,4-benzodiazepin-2-one] | 121 to 123
O=C1C=NC(Cc2ccccc2)(C(F)(F)F)c2cc(Cl)ccc2N1 (stereo not shown) [compound 190, 7-Chloro-5-benzyl-1,5-dihydro-5-(trifluoromethyl)-1,4-benzodiazepin-2-one] | 160 to 162
O=C1C=NC(CCC2CC2)(C(F)(F)F)c2cc(Cl)ccc2N1 (stereo not shown) [compound 193, 7-Chloro-5-(2-cyclopropylethyl)-1,5-dihydro-5-(trifluoromethyl)-1,4-benzodiazepin-2-one] | 152 to 155
